Results on three compounds are retold here after paper PMC10733349, “Synthesis and in-vitro anti-proliferative with antimicrobial activity of new coumarin containing heterocycles hybrids” (Scientific Reports, 2023).

SMILES strings stand for the structures. Converted amounts (≈) assume the structure as drawn. “And” between values parts separate entries of the source, which are not always exact repeats. Identical values can stand only once.

For one series, the system named is WISH cell line. The series is described as follows: MTT safety assay on WISH normal cells. Format: cell-based, Human. Particulars: Homo sapiens, 48 h, 2 days. The source says:
(§1) Cell lines; WISH cell line (Human amnion-derived normal epithelial cells, CCL-25), MDA-MB-231 cell line (Human, mammary gland/breast adenocarcinoma, HTB-26), CaCo-2 cell line (Human Colorectal adenocarcinoma, epithelial cells, HTB-37), A549 cell line (Human Lung adenocarcinoma, epithelial cells, CCL-185) cell lines and HepG-2 (liver hepatocellular carcinoma, HEPG2, HB-8065) were obtained from ATCC, originally with license and serial numbers as mentioned.
(§2) The safety assays of coumarin hybrids on noncancerous cell lines and their anticancer effects on cancerous cells were gauged utilizing MTT-assay (Promega) in accordance with the instruction protocol. Starting from 60 to 200 µM, serial dilutions of coumarin hybrids were prepared in sterile DMSO to be treated cell lines at final concentrations 30 to 100 µM. The treated cells were incubated for 2 days, and the cellular cytotoxicity was detected by quantifying the solubilized formazan in DMSO at 570 nm. The inhibition concentration of 50 (IC50) was calculated from the cytotoxicity% curve using GraphPad prism 9.
Background: Tetrazolium dyes change colour on reduction, which living cells bring about.

The next series has as its system CaCo-2 cell line. Put plainly: MTT anti-proliferative assay, CaCo-2. Format: cell-based, Human. The conditions noted are these: for IC50: CaCo-2, MTT, 2 days; for Selective index: SI = IC50 normal cells (WISH)/IC50 CaCo-2.
Description: as §1, §2
(§3) Cancer cell selectivity index of Coumarin hybrids samples were measured as explained by, with a minor modification; (SI = IC50nc/IC50cc), where IC50nc refers to the value of IC50 of the coumarin hybrids compounds on normal cells, while IC50cc refers to the IC50 of the coumarin hybrids compounds on cancer cell line.

Another series concerns A549 cell line. The series is described as follows: MTT anti-proliferative assay, A549. It counts as cell-based, Human. The conditions noted are these: for IC50: Homo sapiens, A549, 48 h, A549, MTT, 2 days.
Description: as §1, §2, §3

The next series relates to MDA-MB-231 cell line. Put plainly: MTT anti-proliferative assay, MDA-MB-231. Format: cell-based, Human. The conditions noted are these: for IC50: Homo sapiens, MDA-MB-231, 48 h, MDA-MB-231, MTT, 2 days; for Selective index: SI = IC50 normal cells (WISH)/IC50 MDA-MB-231.
Description: as §1, §2, §3

The test system of another series is HepG-2. Put plainly: MTT anti-proliferative assay, HepG-2. Format: cell-based, human. Particulars: for IC50: Homo sapiens, HepG2, 48 h, HepG-2, MTT, 2 days; for Selective index: SI = IC50 normal cells (WISH)/IC50 HepG-2.
Description: as §1, §2, §3

A further series deals with pseudomonas aeruginosa. Put plainly: Antimicrobial microplate assay (MIC), P. aeruginosa. It counts as cell-based. An excerpt: (§4) Microbial strains: Escherichia coli, pseudomonas aeruginosa, Staphylococcus aureus, Streptococcus mutans and Candida albicans were collected from the microbial culture collection of Biopharmaceutical Products Research Department, Genetic Engineering and Biotechnology Research Institute, SRTA-City, New Borg El-Arab city, Alexandria, Egypt.
(§5) The antimicrobial activity of coumarin hybrids samples were checked against different multiple drug resistant microorganisms (Escherichia coli, pseudomonas aeruginosa, Staphylococcus aureus and Streptococcus mutans and Candida albicans) using various concentrations (30 to 100 µM). An aliquot of 100.0 µl of each sample concentration was added to an equal volume of each microbial growth dilution (about 10^6 CFU/ml) and inoculated into 96 well plate. Furthermore, 100.0 µl of LB media was added to 100.0 µl of microbial growth to set as the negative control group. After that, the inoculated plates were incubated overnight at 37 °C then, the microbial turbidity was measured using automated ELIZA microplate reader (BINDER BIOTECK E LX 800) adjusted at 620 nm. The microbial inhibition percentage after treatments were quantified using the following equation:1 Inhibition percentage=A-A1/A0×100. where, A: the treatment group absorbance, A1: the blank absorbance, and A0: the control group absorbance.

The test system of a further series is Staphylococcus aureus. The series is described as follows: Antimicrobial microplate assay (MIC), S. aureus. Particulars: Staph. aureus, two values per compound. Format: cell-based.
Description: as §4, §5

The test system of the next series is Candida albicans. Put plainly: Antimicrobial microplate assay (MIC), C. albicans. It counts as cell-based. The conditions noted are these: two values per compound.
Description: as §4, §5

For another series, the system named is Escherichia coli. The series is described as follows: Antimicrobial microplate assay (MIC), E. coli. It counts as cell-based. Particulars: two values per compound.
Description: as §4, §5

For the next series, the system named is Streptococcus mutans. Put plainly: Antimicrobial microplate assay (MIC), S. mutans. Format: cell-based. Particulars: two values per compound.
Description: as §4, §5

As usually defined, the IC50 is the concentration that inhibits the measured activity by half. Read a low IC50 as greater potency in that assay. As usually defined, the MIC is the lowest concentration found to suppress growth. A higher MIC goes with a need for much substance. In general, melting point refers to the temperature of the solid-liquid transition.

Regarding `O=C(NCCCNc1c2ccccc2nc2ccccc12)c1cc2ccccc2oc1=O` [10c, N-(3-(Acridin-9-ylamino)propyl)-2-oxo-2H-chromene-3-carboxamide], the melting point lay in the range of 261 to 263 °C. The compound further showed an IC50 with WISH cell line of 56.7 µM. In the series with CaCo-2 cell line, this compound registered an IC50 of 56.7 µM and a Selective index of 0.77. Besides, in the series on CaCo-2 cell line (listed as 10), the half-inhibitory concentration (IC50) was 145 µM and the Selective index is given as 0.7785. Also, the IC50 in the series with A549 cell line amounted to 130 µM. Moreover, in the series on MDA-MB-231 cell line, the concentration for half-maximal inhibition (IC50) was determined as 109 µM and the Selective index is reported as 0.8462. Also, in the series with HepG-2, the IC50 was 107 µM and the Selective index was determined as 0.5533. This compound had a minimum inhibitory concentration (MIC) in the series on pseudomonas aeruginosa of 15.4 µM (≈ 6.52 µg/mL).
The compound `O=C(NNc1ccnc2cc(Cl)ccc12)c1cc2ccccc2oc1=O` [7a, N'-(7-Chloroquinolin-4-yl)-2-oxo-2H-chromene-3-carbohydrazide] gave a melting point of 294 to 296 °C. The IC50 with WISH cell line was found to be 79.3 µM. In the series with CaCo-2 cell line (Homo sapiens, Caco-2, 48 h), the IC50 stood at 57.1 µM. The Selective index in the series on CaCo-2 cell line was 1.38 and 1.39. For the same compound, in the series with A549 cell line, the IC50 came out at 51.7 µM. In the series with A549 cell line (SI = IC50 normal cells (WISH)/IC50 A549), the Selective index was 1.5 and 1.533. In the series on MDA-MB-231 cell line, this compound gave an IC50 of 211 µM and a Selective index of 0.3752. In the series on HepG-2, this compound registered an IC50 of 75.4 µM and a Selective index of 1.051. The compound further came in with an MIC in the series on Staphylococcus aureus of 31 µM (≈ 11.3 µg/mL). The compound also returned an MIC against Staphylococcus aureus (Staphylococcus aureus) of 30 µM (≈ 11 µg/mL). Moreover, the minimum inhibitory concentration (MIC) against Candida albicans (Candida albicans) amounted to 62 µM (≈ 22.7 µg/mL). Moreover, the MIC against Candida albicans turned out to be 61 µM (≈ 22.3 µg/mL). Further, in the series on Escherichia coli (Escherichia coli), the lowest concentration to inhibit growth (MIC) was 29 µM (≈ 10.6 µg/mL). This compound came in with a minimal inhibitory concentration (MIC) against Escherichia coli of 28 µM (≈ 10.2 µg/mL). Moreover, the MIC against Streptococcus mutans (Streptococcus mutans) is 248 µM (≈ 90.7 µg/mL). Moreover, the MIC with Streptococcus mutans worked out at 246 µM (≈ 90 µg/mL).
As to `O=C(NCCNc1c2ccccc2nc2ccccc12)c1cc2ccccc2oc1=O` [10b, N-(2-(Acridin-9-ylamino)ethyl)-2-oxo-2H-chromene-3-carboxamide], the MIC in the series with Staphylococcus aureus is 3.2 µM (≈ 1.31 µg/mL); in the series with Staphylococcus aureus (Staphylococcus aureus) it was 3.2 to 66 µM (≈ 1.31 to 27 µg/mL); against Streptococcus mutans (Streptococcus mutans) it was 3.2 to 66 µM (≈ 1.31 to 27 µg/mL); in the series on Streptococcus mutans, 5 µM and 5.5 µM; with pseudomonas aeruginosa, 14.8 µM (≈ 6.06 µg/mL).
